US20190100725A1, “CELL CULTURE MEDIUM AND CULTURE MEDIUM SUPPLEMENT” (Institute of Biophysics, Chinese Academy of Sciences, priority 2016, published 2019)

Assays:
Type in all cases: cell-based, human
[1] = test system: hPSC-derived ventricular-like cardiomyocytes; assay: Perforated whole-cell patch clamp, evoked AP of ventricular-like cardiomyocytes paced at 1 Hz; conditions: for APA / APD50 / APD90 / MDP / dV/dT: evoked AP, 1 Hz, percentage of untreated cardiomyocytes, mean±SEM
Method: Perforated whole-cell recording was used for pharmacological tests.
Nifedipine (Sigma-Aldrich, N7634) was prepared in DMSO. […] Other chemicals were from Sigma-Aldrich.

hiPSC lines = assay: Cardiac differentiation of hiPSC lines in S12 medium, FACS of CTNT-positive cells; conditions: for percentage of CTNT-positive cells after glucose deprivation enrichment: 2 days of glucose deprivation (glucose replaced with DL-lactate); for percentage of CTNT-positive cells before glucose deprivation enrichment: hiPSC line XVF 4 in S12 medium, 1 μM, days 5-8
Method: (§1) For small molecule-induced cardiac differentiation, hESC line H7 or hiPSCs were digested with Versene solution into single cells and seeded on VTN-NC-coated, 24-well plates at a density of 2.5-3.0×10^5 cells/well. Y27632 (10 μM) was supplemented on the first day and withdrawn thereafter. Cultures were maintained in E8 medium for 2-3 days until they reached 90% confluence. To initiate cell differentiation (designated as day 0), the medium was changed to S12 medium without insulin. Cells were treated with 4-8 μM CHIR99021 (Tocris, 4423) for 1 day. Then, the medium was replaced with fresh medium without CHIR99021. At day 3, 5 μM IWR-1 (Sigma-Aldrich, 10161) was supplied with fresh medium for 2 days. From day 5, insulin-containing S12 medium was used. Thereafter, the medium was changed every other day (FIG. 1a).
(§2) For directed differentiation of atrial or ventricular myocytes, 1 μM RA (Sigma-Aldrich, R2625) or 1 μM BMS493 (Tocris, 3509) was added to the differentiating cultures during days 5-8 of differentiation as described previously^9.
(§3) Cardiomyocytes were digested into single cells with 0.25% trypsin-EDTA (Life Technology, 25200-072) at 37° C. for about 5 min, and washed with buffer B, which contains 0.5% bovine serum albumin (Sigma, A9418-50G) in phosphate-buffered saline (PBS). Then the cells were fixed with 4% paraformaldehyde at room temperature and washed with buffer A, which contains 0.5% bovine serum albumin and 0.1% saponin (Sigma-Aldrich, S7900) in PBS. The cells were then incubated with an anti-human CTNT primary antibody (R&D systems, MAB1874) for 40 min at 4° C. and washed with buffer A, followed by incubation with a goat anti-mouse FITC-conjugated secondary antibody (ZSGB-BIO, ZF-0312) for 40 min at 4° C. Data were collected on FACScalibur (Becton Dickinson) and analyzed with FlowJo software (Treestar).

[2] = test system: hiPSC-derived cardiomyocytes; assay: Whole-cell patch clamp classification of AP types in RA- and BMS493-treated cultures
Method: The dissociation method used has been described previously^9. Briefly, 25-30-day-old differentiated cardiomyocyte clusters were washed with a low Ca^2+ solution, and then incubated in 1 mg/mL collagenase II (Life Technology, 17101-015) dissolved in a low Ca^2+ solution for 30-40 min at 37° C. The isolated cells were suspended in S12 medium containing 10% FBS, transferred to 0.1% gelatin-coated glass coverslips, and then maintained in a 5% CO2 incubator at 37° C.
Action potential (AP) and ion channel activities, which are critical for normal functions of cardiomyocytes, were investigated using whole-cell patch clamp technology on single cardiomyocytes. The classification of nodal-, atrial- and ventricular-like APs was based on the AP properties. Particularly, nodal-like AP has a slower maximal upstroke velocity (dV/dt), smaller action potential amplitude (APA), depolarized maximum diastolic potential (MDP), and faster beating rate than those of atrial- and ventricular-like APs. An AP duration at 90%0, of repolarization (APD90) value of 150 ms was used to classify atrial- and ventricular-like APs, because of the significant plateau phase of ventricular AP^21, 22. […] The parameters of the three AP types recorded were also analyzed (FIG. 3c).

hESC line H7 = assay: Cardiac differentiation of hESC line H7, FACS of CTNT-positive cells and cardiomyocyte yield; conditions: for cardiac differentiation efficacy (in words): individual addition of the antioxidant to S12 basal medium
Method: as §1, §3

hiPSC line XVF 4 [3] = assay: QPCR of IRX4 and NR2F2 in RA- or BMS493-treated hiPSC cultures; conditions: 14-day-old cultures; BMS493-treated versus RA-treated
Method: as §2
Total RNA was isolated using RNeasy Plus Mini kit (Qiagen, 74134). One microgram of total RNA was reverse transcribed using the PrimeScript™ RT reagent kit with gDNA eraser (Takara, RR047A). RT-PCR was performed with 2×Taq Mix (CW-BIO, CW0682C) according to the manufacturer's instructions. PCR products were analyzed using 1.5% agarose gel electrophoresis. QPCR was performed in triplicate using the 2×QuantiFast SYBR Green I PCR Master Mix (Qiagen, 204057) on a Rotor Gene 6200 Real-Time PCR Machine (Corbett) with an annealing temperature of 60° C. The expression of each gene was normalized to GAPDH gene expression. The primer sequences are listed in Table 4 (primer sequences for RT-PCR) and Table 5 (primer sequences for QPCR).

hiPSC line XVF 4 [4] = assay: Double immunofluorescence staining of MLC2V and CTNT in 60-day-old cultures
Method: Differentiated cultures were digested with 0.25% trypsin-EDTA, and the cells were plated on 0.1% gelatin-coated coverslips for 5 days to allow full attachment. The coverslips were washed with PBS and fixed in 4% paraformaldehyde for 20 min at 4° C. The fixed cells were then permeabilized with 0.1% Triton X-100 for 20 min at 4° C., and blocked with 10% goat serum (ZSGB-BIO, ZLI-9021) for 1 h at room temperature. Then, the cells were incubated overnight at 4° C. with the following primary antibodies: anti-human CTNT (R&D systems, MAB1874), mouse anti-human α-actinin (Sigma-Aldrich, A7811), mouse anti-human MHC (Abcam, ab15), goat anti-human α-SMA (Abcam, ab5694), mouse anti-human MLC2A (Synaptic Systems, 311011) and rabbit anti-human MLC2V (ProteinTech, 10906-1-AP). Goat anti-mouse 488- (ZSGB-BIO, ZF-0512) or 594-conjugated secondary antibody (ZSGB-BIO, ZF-0513), and goat anti-rabbit 488- (ZSGB-BIO, ZF-0511) or 594-conjugated secondary antibody (ZSGB-BIO, ZF-0516) were used as secondary antibodies. Nuclei were counterstained with 4′,6-diamidino-2-phenylindole (DAPI) (Sigma-Aldrich, D0542). Immunofluorescence images were visualized and recorded using an Olympus microscope system X51 or Olympus LSCM FV1000 (Olympus).

Row | Compound | APA ([1]; 1 nM) [%] | APD50 ([1]; 1 nM) [%] | APD90 ([1]; 1 nM) [%] | MDP ([1]; 1 nM) [%] | dV/dT ([1]; 1 nM) [%] | APA ([1]; 10 nM) [%] | APD50 ([1]; 10 nM) [%] | APD90 ([1]; 10 nM) [%] | MDP ([1]; 10 nM) [%] | dV/dT ([1]; 10 nM) [%] | APA ([1]; 100 nM) [%] | APD50 ([1]; 100 nM) [%] | APD90 ([1]; 100 nM) [%] | MDP ([1]; 100 nM) [%] | dV/dT ([1]; 100 nM) [%] | APA ([1]; 1000 nM) [%] | APD50 ([1]; 1000 nM) [%] | APD90 ([1]; 1000 nM) [%] | MDP ([1]; 1000 nM) [%] | cardiac differentiation efficacy (in words) (hESC line H7) | further results
1 | COC(=O)C1=C(C)NC(C)=C(C(=O)OC)C1c1ccccc1[N+](=O)[O-] [Nifedipine] | 96.7 ± 2.7 | 92.7 ± 2.1 | 94.6 ± 2.0 | 99.7 ± 2.7 | 90.6 ± 4.1 | 96.2 ± 0.7 | 70.1 ± 2.9 | 73.6±2.7 | 103.5 ± 1.1 | 96.4 ± 5.9 | 88.3 ± 2.4 | 55.3 ± 4.3 | 60.8±4.3 | 100.8 ± 2.9 | 86.1 ± 8.8 | 73.8 ± 4.4 | 36.0 ± 3.3 | 47.1±6.1 | 100.8 ± 3.1 | – | dV/dT ([1]; 1000 nM): 60.0 ± 11.3 %
2 | CC1=C(/C=C/C(C)=C/C=C/C(C)=C/C(=O)O)C(C)(C)CCC1 [RA, retinoic acid] | – | – | – | – | – | – | – | – | – | – | – | – | – | – | – | – | – | – | – | – | percentage of CTNT-positive cells after glucose deprivation enrichment (hiPSC lines): 95.7%; percentage of CTNT-positive cells before glucose deprivation enrichment (hiPSC lines): 85%; percentage of recorded APs that were atrial-like ([2]; 30-day-old cardiomyocytes, n=31): 90.3%
3 | CC(=O)N[C@@H](CS)C(=O)O [N-acetyl-L-cysteine] | – | – | – | – | – | – | – | – | – | – | – | – | – | – | – | – | – | – | – | marginally improved | –
4 | CC1(C)CC=C(C#Cc2ccccc2)c2cc(/C=C/c3ccc(C(=O)O)cc3)ccc21 [BMS493] | – | – | – | – | – | – | – | – | – | – | – | – | – | – | – | – | – | – | – | – | percentage of CTNT-positive cells after glucose deprivation enrichment (hiPSC lines): 94.3%; percentage of CTNT-positive cells before glucose deprivation enrichment (hiPSC lines): 86.3%; expression level of ventricular-specific gene IRX4 (hiPSC line XVF 4 [3]): significantly higher; MLC2V expression in cardiomyocytes (hiPSC line XVF 4 [4]): widely expressed; percentage of recorded APs that were ventricular-like [2]: 93.3%
5 | CC(C)NCC(O)c1ccc(O)c(O)c1 (stereo not drawn) [Isoproterenol] | 99.9 ± 1.7 | 99.1 ± 0.7 | 97.3 ± 1.7 | 101.2 ± 1.5 | 99.9 ± 3.0 | 101.7 ± 1.6 | 93.0 ± 1.6 | 92.0 ± 2.5 | 102.8 ± 2.3 | 108.1 ± 1.8 | 102.1 ± 2.5 | 90.7 ± 1.8 | 90.8 ± 1.8 | 104.8 ± 3.7 | 105.6 ± 2.5 | 99.0 ± 5.2 | 87.0 ± 1.6 | 87.3 ± 1.6 | 101.8 ± 5.0 | – | dV/dT ([1]; 1000 nM): 105.3 ± 3.1%; APD90 (in words) ([1]; 1 Hz stimulation): minor reduction; effects on the parameters of AP ([1]; 1 Hz stimulation, except APD90): no significant effects
6 | Cc1c(C)c2c(c(C)c1O)CCC(C)(C(=O)O)O2 (stereo not drawn) [trolox] | – | – | – | – | – | – | – | – | – | – | – | – | – | – | – | – | – | – | – | marginally improved | cardiac differentiation (FACS for CTNT positive cells) (hESC line H7; added to B27-based medium with six compounds removed, VTN-NC first three days): efficiently supported cardiac differentiation
7 | CC(=O)C(=O)[O-].[Na+] [sodium pyruvate] | – | – | – | – | – | – | – | – | – | – | – | – | – | – | – | – | – | – | – | marginally improved | –
8 | O=C1O[C@H]([C@@H](O)CO)C(O)=C1O [L-ascorbic acid] | – | – | – | – | – | – | – | – | – | – | – | – | – | – | – | – | – | – | – | marginally improved | –
9 | Cc1cccc(CCN2CCC(C(=O)c3ccc(NS(C)(=O)=O)cc3)CC2)n1 [E-4031] | 102.9 ± 1.1 | 103.8 ± 3.8 | 102.1 ± 3.1 | 101.9 ± 1.2 | 101.2 ± 8.0 | 103.8 ± 1.5 | 110.1 ± 5.4 | 112.1 ± 5.0 | 101.5 ± 1.7 | 112.4 ± 5.5 | 103.0 ± 2.3 | 144.0 ± 6.7 | 169.6±13.4 | 99.6 ± 2.9 | 111.4 ± 9.6 | 95.6 ± 4.0 | 151.1 ± 7.5 | 195.6±12.3 | 92.4 ± 2.8 | – | effects on the AP ([1]; 10 nM, 1 Hz stimulation): minor effects; dV/dT ([1]; 1000 nM): 95.6 ± 7.4%; AP duration ([1]; 1 Hz stimulation (0.1-0.3 nA), dose dependence): prolonged the AP duration in a dose-dependent manner; change in APA and dV/dt ([1]; 1 Hz stimulation, up to 1000 nM): no significant change
